Source: patent publication US11369616B2, “Drug combination and its use in therapy” (Proximagen, LLC, priority 2016, dated 2022)

Assays:
Assay type in all cases: in vivo, mice
[1] = tested on: H22; experiment: Syngeneic subcutaneous tumour growth inhibition, H22 (Study 2); conditions: Liver, H22, SDF-1 26 FPKM; 641 50 mg/kg p.o. 5 days out of 7; anti-PD1 10 mg/kg i.p. twice weekly for 3 weeks; vs vehicle group
Method: (§1) Four syngeneic cell lines (EMT-6, H22, CT26, B16F10small) were cultured and when in exponential growth were inoculated in mice subcutaneously with tumour cells in 0.1 mL of PBS for tumour development. After the mean tumour size reached approximately 80-120 mm^3 the mice were treated with anti-PD1 antibody (clone RMP1-14) (10 mg/kg i.p. twice weekly for 3 weeks) or 6-{4-[1-(Propan-2-yl)piperidin-4-yl]-1,4-diazepan-1-yl}-N-(pyridin-4-yl)pyridine-2-carboxamide (50 mg/kg p.o. 5 days out of 7), or a combination of the two treatments. Tumour volumes were measured twice weekly at least in two dimensions using a caliper, and the volume expressed in mm^3 using the formula: V=0.5 a×b^2 where a and b are the long and short diameters of the tumour, respectively. Tumour growth was measured and inhibition of tumour growth reported in comparison to a vehicle treated group. All groups contained 8 mice. If the tumours in a group reached an average volume of 2000 mm^3, the experiment was terminated.
(§2) SDF-1 levels were measured by RNA sequencing and are expressed as fragments read per million mapped reads per kilobase of transcript (FPKM). FPKM is normalised to all the fragments read and to the length of the genes, and so is in effect a ratio of the number of SDF-1 reads to all the other genes read multiplied by one million.

[2] = tested on: B16F10 small; experiment: Syngeneic subcutaneous tumour growth inhibition, B16F10 small (Study 2); conditions: Melanoma, SDF-1 4 FPKM, 641 50 mg/kg p.o. 5 days out of 7, anti-PD1 10 mg/kg i.p. twice weekly for 3 weeks, vs vehicle group
Method: as §1, §2

[3] = tested on: CT26; experiment: Syngeneic subcutaneous tumour growth inhibition, CT26 (Study 2); conditions: Colorectal, CT26, SDF-1 17 FPKM; 641 50 mg/kg p.o. 5 days out of 7; anti-PD1 10 mg/kg i.p. twice weekly for 3 weeks; vs vehicle group
Method: as §1, §2

[4] = tested on: EMT6; experiment: Syngeneic subcutaneous tumour growth inhibition, EMT6 (Study 2); conditions: Breast, EMT6, SDF-1 42 FPKM; 641 50 mg/kg p.o. 5 days out of 7; anti-PD1 10 mg/kg i.p. twice weekly for 3 weeks; vs vehicle group
Method: as §1, §2

With CC(C)N1CCC(N2CCCN(c3cccc(C(=O)Nc4ccncc4)n3)CC2)CC1 [compound 641, 6-{4-[1-(Propan-2-yl)piperidin-4-yl]-1,4-diazepan-1-yl}-N-(pyridin-4-yl)pyridine-2-carboxamide] the “% inhibition of tumour growth relative to control” value [1] was 20.1%, the “% inhibition of tumour growth relative to control” value [2] was 0% and the “% inhibition of tumour growth relative to control” value [3] was 32.1%. The “% inhibition of tumour growth relative to control” value [4] was 79.8%.
